According to ChEMBL document CHEMBL3217756, “Biological and computational evaluation of an oxadiazole derivative (MD77) as a new lead for direct STAT3 inhibitors” (Medchemcomm, 2012):

Legend:
HOP-62 = assay: Cytotoxicity against human HOP62 cells after 48 hrs by sulforhodamine B assay; assay type: functional; conditions: HOP-62, 48 h
SN12C = assay: Cytotoxicity against human SN12C cells after 48 hrs by sulforhodamine B assay; assay type: functional
[1] = target: Signal transducer and activator of transcription 1-alpha/beta (Homo sapiens) (UniProt P42224); assay: Inhibition of SH2 domain of STAT1 (unknown origin) using FITC-GpYDKPHVL as substrate at 30 uM preincubated for 15 mins before substrate addition measured after 90 mins by alphascreen based assay
Signal transducer and activator of transcription 1-alpha/beta (Homo sapiens), sequence (P42224 whole entry, the tested form may be a part): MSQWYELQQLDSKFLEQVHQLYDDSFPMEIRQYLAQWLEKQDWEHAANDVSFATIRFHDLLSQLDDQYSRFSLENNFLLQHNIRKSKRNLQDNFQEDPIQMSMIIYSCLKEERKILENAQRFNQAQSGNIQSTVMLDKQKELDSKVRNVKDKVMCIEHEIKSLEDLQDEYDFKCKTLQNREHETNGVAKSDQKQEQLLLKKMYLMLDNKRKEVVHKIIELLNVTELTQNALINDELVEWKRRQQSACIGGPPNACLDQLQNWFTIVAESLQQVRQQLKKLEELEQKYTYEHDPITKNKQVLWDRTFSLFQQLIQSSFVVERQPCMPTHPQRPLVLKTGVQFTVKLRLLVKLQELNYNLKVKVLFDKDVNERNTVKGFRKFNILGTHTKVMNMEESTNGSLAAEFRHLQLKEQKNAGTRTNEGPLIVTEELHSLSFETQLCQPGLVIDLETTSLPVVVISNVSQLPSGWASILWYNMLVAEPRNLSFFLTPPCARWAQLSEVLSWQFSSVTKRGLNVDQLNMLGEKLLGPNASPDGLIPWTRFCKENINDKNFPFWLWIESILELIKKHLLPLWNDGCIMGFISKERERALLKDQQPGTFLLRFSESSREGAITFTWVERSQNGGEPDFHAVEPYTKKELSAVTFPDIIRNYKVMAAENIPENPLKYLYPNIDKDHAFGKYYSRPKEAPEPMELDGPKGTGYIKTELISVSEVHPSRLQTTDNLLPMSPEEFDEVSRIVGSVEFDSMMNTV

HCT-116 = assay: Cytotoxicity against human HCT116 cells after 48 hrs by sulforhodamine B assay; assay type: functional; conditions: HCT-116, 48 h
A549 = assay: Cytotoxicity against human A549 cells after 48 hrs by sulforhodamine B assay; assay type: functional; conditions: A549, 48 h
U-251 = assay: Cytotoxicity against human U251 cells after 48 hrs by sulforhodamine B assay; assay type: functional; conditions: U-251, 48 h
MDA-MB-435 = assay: Cytotoxicity against human MDA-MB-435 cells after 48 hrs by sulforhodamine B assay; assay type: functional; conditions: MDA-MB-435, 48 h
[2] = Cytotoxicity against human HCT15 cells after 48 hrs by sulforhodamine B assay; assay type: functional; conditions: HCT-15, 48 h
SF-295 = assay: Cytotoxicity against human SF295 cells after 48 hrs by sulforhodamine B assay; assay type: functional; conditions: SF-295, 48 h
IGROV-1 = assay: Cytotoxicity against human IGROV1 cells after 48 hrs by sulforhodamine B assay; assay type: functional; conditions: IGROV-1, 48 h
MDA-MB-231 = assay: Cytotoxicity against human MDA-MB-231 cells after 48 hrs by sulforhodamine B assay; assay type: functional; conditions: MDA-MB-231, 48 h
HCC 2998 = assay: Cytotoxicity against human HCC2998 cells after 48 hrs by sulforhodamine B assay; assay type: functional; conditions: HCC 2998, 48 h
MOLT-4 = assay: Cytotoxicity against human MOLT4 cells after 48 hrs by sulforhodamine B assay; assay type: functional; conditions: MOLT-4, 48 h
[3] = Cytotoxicity against human OVCAR3 cells after 48 hrs by sulforhodamine B assay; assay type: functional; conditions: OVCAR-3, 48 h
SNB-19 = assay: Cytotoxicity against human SNB19 cells after 48 hrs by sulforhodamine B assay; assay type: functional; conditions: SNB-19, 48 h
TK-10 = assay: Cytotoxicity against human TK10 cells after 48 hrs by sulforhodamine B assay; assay type: functional; conditions: TK-10, 48 h
[4] = target: Signal transducer and activator of transcription 3 (Homo sapiens, UniProt P40763); assay: Inhibition of STAT3 in human HCT116 cells at 5 uM after 24 hrs by dual-light luciferase reporter gene assay; assay type: cell-based; conditions: HCT-116
Signal transducer and activator of transcription 3, sequence (P40763 whole entry): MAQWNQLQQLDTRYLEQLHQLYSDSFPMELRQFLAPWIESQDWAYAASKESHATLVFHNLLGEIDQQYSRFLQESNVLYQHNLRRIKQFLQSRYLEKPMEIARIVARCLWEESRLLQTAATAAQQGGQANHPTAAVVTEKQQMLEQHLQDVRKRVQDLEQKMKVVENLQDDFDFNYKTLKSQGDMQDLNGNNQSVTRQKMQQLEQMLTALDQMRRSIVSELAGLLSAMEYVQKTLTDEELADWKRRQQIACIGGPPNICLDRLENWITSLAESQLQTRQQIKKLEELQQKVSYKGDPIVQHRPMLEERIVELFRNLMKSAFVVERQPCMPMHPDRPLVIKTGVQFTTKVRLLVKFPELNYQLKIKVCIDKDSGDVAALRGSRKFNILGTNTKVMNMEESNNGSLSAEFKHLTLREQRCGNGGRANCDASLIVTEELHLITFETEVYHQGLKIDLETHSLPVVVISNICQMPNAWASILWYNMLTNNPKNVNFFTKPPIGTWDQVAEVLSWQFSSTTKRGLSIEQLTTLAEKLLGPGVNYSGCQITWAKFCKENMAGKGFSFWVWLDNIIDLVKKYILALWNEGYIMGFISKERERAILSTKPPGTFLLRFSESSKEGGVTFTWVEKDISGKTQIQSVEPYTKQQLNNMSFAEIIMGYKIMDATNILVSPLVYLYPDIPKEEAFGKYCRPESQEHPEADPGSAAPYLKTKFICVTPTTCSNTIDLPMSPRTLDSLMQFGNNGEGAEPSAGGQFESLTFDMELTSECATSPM

Malme-3M = assay: Cytotoxicity against human MALME-3M cells after 48 hrs by sulforhodamine B assay; assay type: functional
SR = assay: Cytotoxicity against human SR cells after 48 hrs by sulforhodamine B assay; assay type: functional
SNB-75 = assay: Cytotoxicity against human SNB75 cells after 48 hrs by sulforhodamine B assay; assay type: functional; conditions: SNB-75, 48 h
SW-620 = assay: Cytotoxicity against human SW620 cells after 48 hrs by sulforhodamine B assay; assay type: functional; conditions: SW-620, 48 h
[5] = read-out: LC50 (the source's name)
[6] = read-out: pLC50 (the source's name) (converted)

With `O=C(Nc1nonc1-c1ccc(Cl)cc1)c1ccc(C(F)(F)F)cc1` the GI50 (HOP-62; read-out: GI50) was 2.93 µM, the CC50 (HOP-62; [5]) was > 100 µM and the TGI (HOP-62; read-out: TGI) was 8.74 µM. For the same compound, the GI50 (HOP-62; read-out: pGI50 (converted)) was 2.95 µM, the CC50 (HOP-62; [6]) was > 100 µM and the TGI (HOP-62; read-out: pTGI (converted)) was 8.71 µM. The GI50 (SN12C; read-out: GI50) was 2.87 µM, the CC50 (SN12C; [5]) was > 100 µM and the TGI (SN12C; read-out: TGI) was > 100 µM. The GI50 (SN12C; read-out: pGI50 (converted)) was 2.88 µM, the CC50 (SN12C; [6]) was > 100 µM and the TGI (SN12C; read-out: pTGI) was > 100 µM. For the same compound, the inhibition [1] was 94.6%, the GI50 (HCT-116; read-out: GI50) was 2.17 µM and the CC50 (HCT-116; [5]) was > 100 µM. The GI50 (HCT-116; read-out: pGI50 (converted)) was 2.19 µM, the CC50 (HCT-116; [6]) was > 100 µM and the GI50 (A549; read-out: GI50) was 2.53 µM. For the same compound, the CC50 (A549; [5]) was > 100 µM, the TGI (A549; read-out: TGI) was > 100 µM and the GI50 (A549; read-out: pGI50 (converted)) was 2.51 µM. For the same compound, the CC50 (A549; [6]) was > 100 µM, the TGI (A549; read-out: pTGI) was > 100 µM and the GI50 (U-251; read-out: GI50) was 2.19 µM. For the same compound, the LC50 (U-251; read-out: LC50) was > 100 µM, the TGI (U-251; read-out: TGI) was > 100 µM and the GI50 (U-251; read-out: pGI50 (converted)) was 2.19 µM. For the same compound, the LC50 (U-251; read-out: pLC50 (converted)) was > 100 µM, the TGI (U-251; read-out: pTGI) was > 100 µM and the GI50 (MDA-MB-435; read-out: GI50) was 2.15 µM. For the same compound, the LC50 (MDA-MB-435; read-out: LC50) was > 100 µM, the TGI (MDA-MB-435; read-out: TGI) was > 100 µM and the GI50 (MDA-MB-435; read-out: pGI50 (converted)) was 2.14 µM. The LC50 (MDA-MB-435; read-out: pLC50 (converted)) was > 100 µM, the TGI (MDA-MB-435; read-out: pTGI) was > 100 µM and the GI50 ([2]; read-out: GI50) was 3.5 µM. The CC50 [2, 5] was > 100 µM, the TGI ([2]; read-out: TGI) was > 100 µM and the GI50 ([2]; read-out: pGI50 (converted)) was 3.47 µM. The CC50 [2, 6] was > 100 µM, the TGI ([2]; read-out: pTGI) was > 100 µM and the GI50 (SF-295; read-out: GI50) was 1.02 µM. It also gave a CC50 (SF-295; [5]) of 43.4 µM, a TGI (SF-295; read-out: TGI) of 3.72 µM and a GI50 (SF-295; read-out: pGI50 (converted)) of 1.02 µM. For the same compound, the CC50 (SF-295; [6]) was > 100 µM, the TGI (SF-295; read-out: pTGI (converted)) was 3.72 µM and the GI50 (IGROV-1; read-out: GI50) was 4.72 µM. The LC50 (IGROV-1; read-out: LC50) was > 100 µM, the TGI (IGROV-1; read-out: TGI) was > 100 µM and the GI50 (IGROV-1; read-out: pGI50 (converted)) was 4.68 µM. The LC50 (IGROV-1; read-out: pLC50 (converted)) was > 100 µM, the TGI (IGROV-1; read-out: pTGI) was > 100 µM and the GI50 (MDA-MB-231; read-out: GI50) was 2.79 µM. The LC50 (MDA-MB-231; read-out: LC50) was > 100 µM, the TGI (MDA-MB-231; read-out: TGI) was 7.59 µM and the GI50 (MDA-MB-231; read-out: pGI50 (converted)) was 2.82 µM. The LC50 (MDA-MB-231; read-out: pLC50 (converted)) was > 100 µM, the TGI (MDA-MB-231; read-out: pTGI (converted)) was 7.59 µM and the GI50 (HCC 2998; read-out: GI50) was 3.63 µM. For the same compound, the CC50 (HCC 2998; [5]) was > 100 µM, the TGI (HCC 2998; read-out: TGI) was > 100 µM and the GI50 (HCC 2998; read-out: pGI50 (converted)) was 3.63 µM. The CC50 (HCC 2998; [6]) was > 100 µM, the TGI (HCC 2998; read-out: pTGI) was > 100 µM and the GI50 (MOLT-4; read-out: GI50) was 1.67 µM. The CC50 (MOLT-4; [5]) was > 100 µM, the TGI (MOLT-4; read-out: TGI) was 6.05 µM and the GI50 (MOLT-4; read-out: pGI50 (converted)) was 1.66 µM. For the same compound, the CC50 (MOLT-4; [6]) was > 100 µM, the TGI (MOLT-4; read-out: pTGI (converted)) was 6.03 µM and the GI50 ([3]; read-out: GI50) was 2.18 µM. For the same compound, the CC50 [3, 5] was > 100 µM, the TGI ([3]; read-out: TGI) was 7.9 µM and the GI50 ([3]; read-out: pGI50 (converted)) was 2.19 µM. For the same compound, the CC50 [3, 6] was > 100 µM, the TGI ([3]; read-out: pTGI (converted)) was 7.94 µM and the GI50 (SNB-19; read-out: GI50) was 3.38 µM. For the same compound, the CC50 (SNB-19; [5]) was > 100 µM, the TGI (SNB-19; read-out: TGI) was > 100 µM and the GI50 (SNB-19; read-out: pGI50 (converted)) was 3.39 µM. The CC50 (SNB-19; [6]) was > 100 µM, the TGI (SNB-19; read-out: pTGI) was > 100 µM and the GI50 (TK-10; read-out: GI50) was 6.75 µM. For the same compound, the CC50 (TK-10; [5]) was > 100 µM, the TGI (TK-10; read-out: TGI) was > 100 µM and the GI50 (TK-10; read-out: pGI50 (converted)) was 6.76 µM. For the same compound, the CC50 (TK-10; [6]) was > 100 µM, the TGI (TK-10; read-out: pTGI) was > 100 µM and the inhibition [4] was 20%. The GI50 (Malme-3M; read-out: GI50) was 1.52 µM, the LC50 (Malme-3M; read-out: LC50) was > 100 µM and the TGI (Malme-3M; read-out: TGI) was 21.8 µM. For the same compound, the GI50 (Malme-3M; read-out: pGI50 (converted)) was 1.51 µM, the LC50 (Malme-3M; read-out: pLC50 (converted)) was > 100 µM and the TGI (Malme-3M; read-out: pTGI (converted)) was 21.9 µM. The GI50 (SR; read-out: GI50) was 2.85 µM, the CC50 (SR; [5]) was > 100 µM and the TGI (SR; read-out: TGI) was 10.6 µM. For the same compound, the GI50 (SR; read-out: pGI50 (converted)) was 2.82 µM, the CC50 (SR; [6]) was > 100 µM and the TGI (SR; read-out: pTGI (converted)) was 10.7 µM. The GI50 (SNB-75; read-out: GI50) was 1.79 µM, the CC50 (SNB-75; [5]) was > 100 µM and the TGI (SNB-75; read-out: TGI) was 7.54 µM. For the same compound, the GI50 (SNB-75; read-out: pGI50 (converted)) was 1.78 µM, the CC50 (SNB-75; [6]) was > 100 µM and the TGI (SNB-75; read-out: pTGI (converted)) was 7.59 µM. The GI50 (SW-620; read-out: GI50) was 2.82 µM, the CC50 (SW-620; [5]) was > 100 µM and the TGI (SW-620; read-out: TGI) was > 100 µM. The GI50 (SW-620; read-out: pGI50 (converted)) was 2.82 µM, the CC50 (SW-620; [6]) was > 100 µM and the TGI (SW-620; read-out: pTGI) was > 100 µM.
